Laboratory results as given in patent US8999956B2, “N-[(het)arylalkyl)] pyrazole(thio)carboxamides and their heterosubstituted analogues” (Bayer Intellectual Property GmbH, priority 2010, dated 2015).

What was measured:
Sphaerotheca fuliginea = experiment: In vivo preventive test on Sphaerotheca fuliginea (cucumber); conditions: 500 ppm of active ingredient, evaluated 7 days after inoculation
Procedure: Solvent: 49 parts by weight of N,N-dimethylformamide Emulsifier: 1 part by weight of Alkylarylpolyglycolether To produce a suitable preparation of active compound, 1 part by weight of active compound is mixed with the stated amounts of solvent and emulsifier, and the concentrate is diluted with water to the desired concentration. To test for preventive activity, young plants are sprayed with the preparation of active compound at the stated rate of application. One day after this treatment, the plants are inoculated with an aqueous spore suspension of Sphaerotheca fuliginea. Then the plants are placed in a greenhouse at approximately 23° C. and a relative atmospheric humidity of approximately 70%.

Alternaria solani = experiment: In vivo preventive test on Alternaria solani (tomato); conditions: 500 ppm of active ingredient, evaluated 7 days after inoculation
Summary of the method: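 Preventive set-up: Alternaria solani spores, as aqueous suspension, applied to young plants one day after spraying. Spray contained active compound formulated with N,N-dimethylformamide and emulsifier, water-diluted to the desired application rate.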

Pyrenophora teres = experiment: In vivo preventive test on Pyrenophora teres (barley); conditions: 500 ppm of active ingredient, evaluated 7-9 days after inoculation
Summary of the method: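 Preventive test: young barley plants received a water-diluted spray of compound formulated with DMF solvent plus alkylaryl polyglycol ether emulsifier, at the stated rate. Inoculation with an aqueous spore suspension of Pyrenophora teres followed one day after spraying.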

Leptosphaeria nodorum = experiment: In vivo preventive test on Leptosphaeria nodorum (wheat); conditions: 500 ppm of active ingredient, evaluated 7-9 days after inoculation
Procedure: (§1) Solvent: 49 parts by weight of N,N-dimethylacetamide Emulsifier: 1 part by weight of alkylaryl polyglycol ether To produce a suitable preparation of active compound, 1 part by weight of active compound is mixed with the stated amounts of solvent and emulsifier, and the concentrate is diluted with water to the desired concentration. To test for preventive activity, young plants are sprayed with a preparation of active compound at the stated rate of application. One day after this treatment, the plants are inoculated with an aqueous spore suspension of Leptosphaeria nodorum.

[1] = system: aflatoxines produced by Aspergillus parasiticus; experiment: microbe, parasite or virus in culture; format: cell-based
Aspergillus parasiticus = experiment: microbe, parasite or virus in culture; format: cell-based
[2] = log P by HPLC on reversed-phase column (EEC Directive 79/831 Annex V.A8); format: physicochemical
Procedure: In table 1, the log P values were determined in accordance with EEC Directive 79/831 Annex V.A8 by HPLC (High Performance Liquid Chromatography) on a reversed-phase column (C18), using the method described below: Temperature: 40° C.; […]

Botrytis cinerea = experiment: In vivo preventive test on Botrytis cinerea (beans)
Procedure: Solvent: 24.5 parts by weight of acetone • 24.5 parts by weight of N,N-dimethylacetamide
Emulsifier: 1 part by weight of alkylaryl polyglycol ether
To produce a suitable preparation of active compound, 1 part by weight of active compound is mixed with the stated amounts of solvent and emulsifier, and the concentrate is diluted with water to the desired concentration.
To test for preventive activity, young plants are sprayed with the preparation of active compound. After the spray coating has dried on, 2 small pieces of agar covered with growth of Botrytis cinerea are placed on each leaf. The inoculated plants are placed in a darkened chamber at 20° C. and a relative atmospheric humidity of 100%.
2 days after the inoculation, the size of the lesions on the leaves is evaluated. 0% means an efficacy which corresponds to that of the untreated control, while an efficacy of 100% means that no disease is observed.

Puccinia triticina = experiment: In vivo preventive test on Puccinia triticina (wheat); conditions: for Efficacy: 500 ppm of active ingredient, evaluated 8 days after inoculation; for pest or weed control at 500 ppm: Puccinia triticina, 192 h, Table K5, dose 500 ppm, comparison with des-fluoro analogues, read-out: Efficacy
Uromyces appendiculatus = experiment: In vivo preventive test on Uromyces appendiculatus (beans); conditions: 100 ppm of active ingredient, evaluated 10 days after inoculation
Procedure: as §1, with “Solvent: 24.5 parts by weight of acetone • 24.5” for “Solvent: 49”, “with the” for “with a”, “application.” for “application. One day after this treatment, the plants are inoculated with an aqueous spore suspension of Leptosphaeria nodorum.”

[3] = Table L, 500 ppm of active ingredient, lesion size 2 days after inoculation
[4] = Table L2, dose 500 ppm, comparison with des-fluoro analogues
[5] = Table L5, dose 500 ppm, comparison with des-fluoro analogues

SMILES | Efficacy (Sphaerotheca fuliginea) | Efficacy (Alternaria solani) | Efficacy (Pyrenophora teres) | logP [2] | Efficacy (Botrytis cinerea; [3]) | further results
CC(CC1CCCCC1NC(=O)c1c(C(F)F)nn(C)c1Cl)C1CC1 (centres unmarked) [Example 328] | 100% | 95% | 95% | 4.28 | – | Efficacy (Leptosphaeria nodorum): 80%; % Inhibition of Aflatoxin at 50 μM [1]: 100%; % Inhibition of fungal growth at 50 μM (Aspergillus parasiticus): 91%
CCC1(CNC(=O)c2c(C(F)F)nn(C)c2F)CCCCC1 [Example 366] | – | 90% | – | 3.55 | 84% | –
CC(CC1CCCCC1)N(C(=O)c1c(C(F)F)nn(C)c1F)C1CC1 (centres unmarked) [Example 370] | 100% | 100% | 100% | 4.36 | 100% | Efficacy (Leptosphaeria nodorum): 90%; Efficacy (Puccinia triticina; Table K): 90%
Cn1nc(C(F)F)c(C(=O)N(C2CC2)C2CCCCC2C2CCCCC2)c1F (centres unmarked) [Example 372] | 100% | 95% | 100% | 5.28 | 91% | Efficacy (Leptosphaeria nodorum): 94%; Efficacy (Puccinia triticina; Table K): 100%
Cn1nc(C(F)F)c(C(=O)N(C2CC2)C2CCCCC2C2=CCCCC2)c1F (centres unmarked) [Example 376] | – | – | – | 4.88 | – | Efficacy (Uromyces appendiculatus): 94%
Cn1nc(C(F)F)c(C(=O)NC2(C3CCCCC3)CC2)c1F [Example 381] | 95% | 100% | 100% | 3.11 | 88% | –
Cn1cc(C(=O)N(CC2CCCCC2c2ccccc2)C2CC2)c(C(F)F)n1 (centres unmarked) [compound CMP1, N-cyclopropyl-3-(difluoromethyl)-1-methyl-N-[(2-phenylcyclohexyl)methyl]-1H-pyrazole-4-carboxamide, reference compound] | – | – | – | – | – | Efficacy (Botrytis cinerea; [4]): 0%
Cc1nn(C)c(F)c1C(=O)N(C1CC1)C1CCCC(c2ccccc2)C1 (centres unmarked) [compound CMP2, N-cyclopropyl-5-fluoro-1,3-dimethyl-N-(3-phenylcyclohexyl)-1H-pyrazole-4-carboxamide, reference compound] | – | – | – | – | – | Efficacy (Puccinia triticina): no protection; pest or weed control at 500 ppm (Puccinia triticina): 0%; Efficacy (Botrytis cinerea; [5]): 5%
Cn1cc(C(=O)N(C2CC2)C2CCCC(c3ccccc3)C2)c(C(F)F)n1 (centres unmarked) [compound CMP3, N-cyclopropyl-3-(difluoromethyl)-1-methyl-N-(3-phenylcyclohexyl)-1H-pyrazole-4-carboxamide, reference compound] | – | – | – | – | – | Efficacy (Puccinia triticina): no protection; pest or weed control at 500 ppm (Puccinia triticina): 0%; Efficacy (Botrytis cinerea; [5]): 0%
Cc1nn(C)c(F)c1C(=O)N(CC1CCCCC1c1ccccc1)C1CC1 (centres unmarked) [compound CMP9, N-cyclopropyl-5-fluoro-1,3-dimethyl-N-[(2-phenylcyclohexyl)methyl]-1H-pyrazole-4-carboxamide, reference compound] | – | – | – | – | – | Efficacy (Botrytis cinerea; [4]): 13%
Cc1nn(C)c(F)c1C(=O)N(C1CC1)C1CCCCC1Oc1ccccc1 (centres unmarked) [compound CMP10, N-cyclopropyl-5-fluoro-1,3-dimethyl-N-(2-phenoxycyclohexyl)-1H-pyrazole-4-carboxamide, reference compound] | – | – | – | – | – | Efficacy (Botrytis cinerea; 500 ppm of active ingredient, lesion size 2 days after inoculation): less than 30%; Efficacy (Botrytis cinerea; Table L4, dose 500 ppm, comparison with des-fluoro analogue): 29%
